Several values for one entry are separate records, joined by “and”; a condition that tells them apart may be missing. Equal values may be shown once.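 Cells were grown in 96-well plates and exposed to each compound for 48 hours at five concentrations; endpoints were interpolated linearly between bracketing concentrations, or set to the highest concentration if not reached. At the GI50, growth is halved.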 Activity calls are given as the source filed them. Cut-off read from the data, not from the text of the source: active = GI50 up to about 1.1 µM and inactive = higher.
Tests used:
Test in all cases: inhibition of tumour cell growth, NCI panel, 48 h
CCRF-CEM = system: CCRF-CEM
UO-31 = system: UO-31
K562 = system: K562
MOLT-4 = system: MOLT-4
LOX IMVI = system: LOX IMVI
NCI/ADR-RES = system: NCI/ADR-RES
MDA-MB-435 = system: MDA-MB-435
HL-60 = system: HL-60
OVCAR-8 = system: OVCAR-8
SF-268 = system: SF-268
NCI-H23 = system: NCI-H23
UACC-257 = system: UACC-257
A549 = system: A549
OVCAR-3 = system: OVCAR-3
SK-OV-3 = system: SK-OV-3
TK-10 = system: TK-10
BT-549 = system: BT-549
RXF 393 = system: RXF 393
SK-MEL-5 = system: SK-MEL-5
MDA-N = system: MDA-N

Structure (SMILES)	GI50 (CCRF-CEM)	GI50 (UO-31)	GI50 (K562)	GI50 (MOLT-4)	GI50 (LOX IMVI)	GI50 (NCI/ADR-RES)	GI50 (MDA-MB-435)	GI50 (HL-60)	GI50 (OVCAR-8)	GI50 (SF-268)	GI50 (NCI-H23)	GI50 (UACC-257)	GI50 (A549)	GI50 (OVCAR-3)	GI50 (SK-OV-3)	GI50 (TK-10)	GI50 (BT-549)	GI50 (RXF 393)	GI50 (SK-MEL-5)	GI50 (MDA-N)
N#Cc1cc2c(cc1Cl)Sc1nccn1S2(=O)=O	0.506 µM (active)	5.52 µM (inactive)	2.69 µM (inactive)	0.667 µM (active)	1.57 µM (inactive)	1.68 µM (inactive)	4.91 µM (inactive)	3.08 µM (inactive)	2.82 µM (inactive)	3.33 µM (inactive)	1.51 µM (inactive)	2.21 µM (inactive)	12.8 µM (inactive)	0.668 µM (active)	4.47 µM (inactive)	13.5 µM (inactive)	3.32 µM (inactive)	4.61 µM (inactive)	9.93 µM (inactive)	
CCOP(=O)(OCC)C(C)(CC)NC(=O)C(C(F)(F)F)C(F)(F)F (configuration not stated)	22 µM (inactive) and 21.9 µM (inactive)	> 100 µM (inactive) and 97.3 µM (inactive)		> 49.3 µM (inactive) and 63.4 µM (inactive)	> 88.3 µM (inactive) and 72.3 µM (inactive)	> 100 µM (inactive)	> 100 µM (inactive) and > 87.7 µM (inactive)		> 100 µM (inactive)	> 100 µM (inactive)	> 100 µM (inactive)	> 100 µM (inactive)	> 100 µM (inactive)	> 100 µM (inactive)	> 100 µM (inactive)	75.9 µM (inactive)		> 100 µM (inactive)	> 100 µM (inactive)	> 100 µM (inactive)
S=C1Cc2c([nH]c3ccccc23)-c2ccccc2N1	> 100 µM (inactive)	19.1 µM (inactive)	47.5 µM (inactive)	23.6 µM (inactive)	75.2 µM (inactive)	50 µM (inactive)	> 100 µM (inactive)	> 100 µM (inactive)	38.3 µM (inactive)	34.4 µM (inactive)	79.1 µM (inactive)	55 µM (inactive)	23 µM (inactive)	32.6 µM (inactive)	24.2 µM (inactive)	21.5 µM (inactive)		18.3 µM (inactive)	42 µM (inactive)	96.8 µM (inactive)
N#CC(C(=O)/C(=N/Nc1nc(S)nn1N)C(C#N)c1ccccc1)c1ccccc1 (configuration not stated)	> 100 µM (inactive)	> 100 µM (inactive)	> 100 µM (inactive)		> 100 µM (inactive)	> 100 µM (inactive)	> 100 µM (inactive)	> 100 µM (inactive)	> 100 µM (inactive)	> 100 µM (inactive)	> 100 µM (inactive)	> 100 µM (inactive)	> 100 µM (inactive)	> 100 µM (inactive)	> 100 µM (inactive)	> 100 µM (inactive)	> 100 µM (inactive)	> 100 µM (inactive)	> 100 µM (inactive)	
CNC(=O)OC1/C(C)=C\C(C)C(O)C(OC)CC(C)CC2=C(OC)C(=O)C=C(C2=O)N(C)C(=O)/C(C)=C/C=C\C1OC (configuration not stated)	0.938 µM (active)	7.69 µM (inactive)	0.578 µM (active)	0.891 µM (active)	4.68 µM (inactive)	20 µM (inactive)			7.38 µM (inactive)	9.73 µM (inactive)	4.86 µM (inactive)	5.02 µM (inactive)	14.3 µM (inactive)	3.8 µM (inactive)	10.2 µM (inactive)	7.64 µM (inactive)	5 µM (inactive)	2.25 µM (inactive)	7.64 µM (inactive)	1.33 µM (inactive)
N/C(=N\c1ccc(Cl)cc1)NS(=O)(=O)c1ccc(-c2ncccc2C(F)(F)F)s1		17.2 µM (inactive)	13.1 µM (inactive)	12.7 µM (inactive)	14 µM (inactive)	18.8 µM (inactive)		15.2 µM (inactive)	14.6 µM (inactive)	16.5 µM (inactive)	13.5 µM (inactive)	3.17 µM (inactive)	15.2 µM (inactive)	17.6 µM (inactive)	17.4 µM (inactive)	13.4 µM (inactive)	14.9 µM (inactive)	18.3 µM (inactive)	20.5 µM (inactive)	
NC(=O)/N=C1\NCCC(=O)N1CCc1c[nH]c2ccccc12	14.4 µM (inactive)	15.9 µM (inactive)	12.4 µM (inactive)	14.5 µM (inactive)	11 µM (inactive)	17.2 µM (inactive)	17.8 µM (inactive)	19.2 µM (inactive)	17.9 µM (inactive)	13.8 µM (inactive)	22.7 µM (inactive)	18.5 µM (inactive)	18.9 µM (inactive)	16 µM (inactive)	50.7 µM (inactive)	17.5 µM (inactive)		12.1 µM (inactive)	18.7 µM (inactive)	19.9 µM (inactive)
